From the supplement of paper PMC11208160

assay: recombinant UMI read abundance after kanamycin selection (control-corrected) (log10(CPM+1)); higher = more efficient recombination; extreme values may be limits of the assay; sequences stand for … in AGTGCAGAGAAAATCGGCCAGTTTTCTCTGCCTGCAGTCCGCATGCCGTGGGACCCCTTGGGTTCTAACCTGTTGCCTAGATTTATGCAGCGGACTGCCTTTCTCCCAAAGTGATAAACCGG…AGGTTGGTTTCACT; site = the 11-nt donor
Method: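 Pooled E. coli donor-specificity screen for the IS621 bridge recombinase. Each library member carries a reprogrammed 11-nt donor and a full-length LE bridge RNA expressed in cis from the natural promoter, with a paired donor-binding loop (8-nt LDG + 4-nt RDG) and a target-binding loop fixed to T5. It is co-electroporated with a T5 target plasmid; recombinase is induced with 0.07 mM IPTG and recombinants are selected on kanamycin. UMIs are counted as CPM, averaged over two biological replicates and corrected by the unselected control. Molecule = full bridge RNA written as DNA, built from the T5 scaffold: LDG = donor specificity nt 1-8, RDG = reverse complement of nt 8-11.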
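Further: IS621 bridge recombinase in Escherichia coli cells against a fixed T5 target plasmid.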

Row | Sequence | recombinant UMI read abundance (log10)
1 | AATGTGACATGGACCGGTTTTCCCGGTAATCCGTATTTGAC (site AATGTGACTGT) | 2.69
2 | AATGTGACATGGACCGGTTTTCCCGGTAATCCGTATTTGAC (site AATGTGCCTGT) | 0
3 | AATGTGACATGGACCGGTTTTCCCGGTAATCCGTATTTGAC (site AATGTGGCTGT) | 1.01
4 | AATGTGACATGGACCGGTTTTCCCGGTAATCCGTATTTGAC (site AATGTGTCTGT) | 0
5 | AATGTGGCATGGACCGGTTTTCCCGGTAATCCGTATTTGAC (site AATGTGACTGT) | 1.16
6 | AATGTGGCATGGACCGGTTTTCCCGGTAATCCGTATTTGAC (site AATGTGCCTGT) | 0.00397
7 | AATGTGGCATGGACCGGTTTTCCCGGTAATCCGTATTTGAC (site AATGTGGCTGT) | 1.81
8 | AATGTGGCATGGACCGGTTTTCCCGGTAATCCGTATTTGAC (site AATGTGTCTGT) | 0.451
9 | AATGTGTCATGGACCGGTTTTCCCGGTAATCCGTATTTGGC (site AATGTGTCTGA) | 0
10 | AATGTGTCATGGACCGGTTTTCCCGGTAATCCGTATTTGGC (site AATGTGTCTGC) | 2.67
11 | AATGTGTCATGGACCGGTTTTCCCGGTAATCCGTATTTGGC (site AATGTGTCTGG) | 0.957
12 | AATGTGTCATGGACCGGTTTTCCCGGTAATCCGTATTTGGC (site AATGTGTCTGT) | 1.99
13 | AATGTTTCATGGACCGGTTTTCCCGGTAATCCGTATTTGAC (site AATGTATCTGT) | 1.73
14 | AATGTTTCATGGACCGGTTTTCCCGGTAATCCGTATTTGAC (site AATGTCTCTGT) | 0
15 | AATGTTTCATGGACCGGTTTTCCCGGTAATCCGTATTTGAC (site AATGTGTCTGT) | 0
16 | AATGTTTCATGGACCGGTTTTCCCGGTAATCCGTATTTGAC (site AATGTTTCTGT) | 0
17 | AATTAAACATGGACCGGTTTTCCCGGTAATCCGTATTTGTA (site AATTAAACTTA) | 0.643
18 | AATTAAACATGGACCGGTTTTCCCGGTAATCCGTATTTGTT (site AATTAAACTAA) | 0.00778
19 | AATTAATCATGGACCGGTTTTCCCGGTAATCCGTATTTGAT (site AATTAATCTAT) | 1.47
20 | AATTAGGCATGGACCGGTTTTCCCGGTAATCCGTATTTGGG (site AATTAGGCTCC) | 0.0811
21 | AATTATACATGGACCGGTTTTCCCGGTAATCCGTATTTGGA (site AATTATACTTC) | 0.828
22 | AATTATACATGGACCGGTTTTCCCGGTAATCCGTATTTGGA (site AATTATCCTTC) | 0.0125
23 | AATTATACATGGACCGGTTTTCCCGGTAATCCGTATTTGGA (site AATTATGCTTC) | 0.476
24 | AATTATACATGGACCGGTTTTCCCGGTAATCCGTATTTGGA (site AATTATTCTTC) | 0.335

Row | Sequence | recombinant UMI read abundance (log10)
25 | AATTATGCATGGACCGGTTTTCCCGGTAATCCGTATTTGAA (site AATTATGCTTA) | 0.0142
26 | AATTATGCATGGACCGGTTTTCCCGGTAATCCGTATTTGAA (site AATTATGCTTC) | 0.0246
27 | AATTATGCATGGACCGGTTTTCCCGGTAATCCGTATTTGAA (site AATTATGCTTG) | 0
28 | AATTATGCATGGACCGGTTTTCCCGGTAATCCGTATTTGAA (site AATTATGCTTT) | 0.313
29 | AATTATGCATGGACCGGTTTTCCCGGTAATCCGTATTTGGG (site AATTATGCTAC) | 0.00898
30 | AATTATGCATGGACCGGTTTTCCCGGTAATCCGTATTTGGG (site AATTATGCTCC) | 0.388
31 | AATTATGCATGGACCGGTTTTCCCGGTAATCCGTATTTGGG (site AATTATGCTGC) | 0
32 | AATTATGCATGGACCGGTTTTCCCGGTAATCCGTATTTGGG (site AATTATGCTTC) | 0.0224
33 | AATTATGCATGGACCGGTTTTCCCGGTAATCCGTATTTGTA (site AATTATGCTTA) | 1.02
34 | AATTATGCATGGACCGGTTTTCCCGGTAATCCGTATTTGTA (site AATTATGCTTC) | 0.0111
35 | AATTATGCATGGACCGGTTTTCCCGGTAATCCGTATTTGTA (site AATTATGCTTG) | 0.00449
36 | AATTATGCATGGACCGGTTTTCCCGGTAATCCGTATTTGTA (site AATTATGCTTT) | 0.0175
37 | AATTGGGCATGGACCGGTTTTCCCGGTAATCCGTATTTGAT (site AATTGGGCTAT) | 0.68
38 | AATTTGGCATGGACCGGTTTTCCCGGTAATCCGTATTTGTG (site AATTTGGCTCA) | 0.122
39 | AATTTGGCATGGACCGGTTTTCCCGGTAATCCGTATTTGTG (site CATTTGGCTCA) | 0.00721
40 | AATTTGGCATGGACCGGTTTTCCCGGTAATCCGTATTTGTG (site GATTTGGCTCA) | 0.011
41 | AATTTGGCATGGACCGGTTTTCCCGGTAATCCGTATTTGTG (site TATTTGGCTCA) | 0.187
42 | AATTTGTCATGGACCGGTTTTCCCGGTAATCCGTATTTGAT (site AATTTGTCTAT) | 0.517
43 | ACAAGGACATGGACCGGTTTTCCCGGTAATCCGTATTTGTT (site ACAAGGACTAA) | 2.32
44 | ACAAGTCCATGGACCGGTTTTCCCGGTAATCCGTATTTGTC (site ACAAGTCCTGA) | 0
45 | ACACAGCCATGGACCGGTTTTCCCGGTAATCCGTATTTGTC (site ACACAGCCTGA) | 0
46 | ACACATCCATGGACCGGTTTTCCCGGTAATCCGTATTTGAC (site AAACATCCTGT) | 0
47 | ACACATCCATGGACCGGTTTTCCCGGTAATCCGTATTTGAC (site ACAAATCCTGT) | 0
48 | ACACATCCATGGACCGGTTTTCCCGGTAATCCGTATTTGAC (site ACACAACCTGT) | 0

Row | Sequence | recombinant UMI read abundance (log10)
49 | ACACATCCATGGACCGGTTTTCCCGGTAATCCGTATTTGAC (site ACACACCCTGT) | 0.501
50 | ACACATCCATGGACCGGTTTTCCCGGTAATCCGTATTTGAC (site ACACAGCCTGT) | 0.424
51 | ACACATCCATGGACCGGTTTTCCCGGTAATCCGTATTTGAC (site ACACATACTGT) | 0.457
52 | ACACATCCATGGACCGGTTTTCCCGGTAATCCGTATTTGAC (site ACACATCCTAT) | 0.0886
53 | ACACATCCATGGACCGGTTTTCCCGGTAATCCGTATTTGAC (site ACACATCCTCT) | 0.265
54 | ACACATCCATGGACCGGTTTTCCCGGTAATCCGTATTTGAC (site ACACATCCTGA) | 0
55 | ACACATCCATGGACCGGTTTTCCCGGTAATCCGTATTTGAC (site ACACATCCTGC) | 0
56 | ACACATCCATGGACCGGTTTTCCCGGTAATCCGTATTTGAC (site ACACATCCTGG) | 0
57 | ACACATCCATGGACCGGTTTTCCCGGTAATCCGTATTTGAC (site ACACATCCTGT) | 1.22
58 | ACACATCCATGGACCGGTTTTCCCGGTAATCCGTATTTGAC (site ACACATCCTTT) | 0.421
59 | ACACATCCATGGACCGGTTTTCCCGGTAATCCGTATTTGAC (site ACACATGCTGT) | 0
60 | ACACATCCATGGACCGGTTTTCCCGGTAATCCGTATTTGAC (site ACACATTCTGT) | 0.87
61 | ACACATCCATGGACCGGTTTTCCCGGTAATCCGTATTTGAC (site ACACCTCCTGT) | 0.91
62 | ACACATCCATGGACCGGTTTTCCCGGTAATCCGTATTTGAC (site ACACGTCCTGT) | 0.84
63 | ACACATCCATGGACCGGTTTTCCCGGTAATCCGTATTTGAC (site ACACTTCCTGT) | 0
64 | ACACATCCATGGACCGGTTTTCCCGGTAATCCGTATTTGAC (site ACAGATCCTGT) | 0
65 | ACACATCCATGGACCGGTTTTCCCGGTAATCCGTATTTGAC (site ACATATCCTGT) | 0.818
66 | ACACATCCATGGACCGGTTTTCCCGGTAATCCGTATTTGAC (site ACCCATCCTGT) | 0
67 | ACACATCCATGGACCGGTTTTCCCGGTAATCCGTATTTGAC (site ACGCATCCTGT) | 0
68 | ACACATCCATGGACCGGTTTTCCCGGTAATCCGTATTTGAC (site ACTCATCCTGT) | 0
69 | ACACATCCATGGACCGGTTTTCCCGGTAATCCGTATTTGAC (site AGACATCCTGT) | 0
70 | ACACATCCATGGACCGGTTTTCCCGGTAATCCGTATTTGAC (site ATACATCCTGT) | 0
71 | ACACATCCATGGACCGGTTTTCCCGGTAATCCGTATTTGAC (site CCACATCCTGT) | 0.581
72 | ACACATCCATGGACCGGTTTTCCCGGTAATCCGTATTTGAC (site GCACATCCTGT) | 0
